Experiments:
Test in all cases: relative viability (nuclei count vs DMSO), 5 days (fraction); higher = more cells survive
LCLC-103H = system: LCLC-103H
How it was run: (§1)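 Values are medians from duplicate plates. Each reflects relative viability, defined as the nuclei count of treated wells over that of vehicle wells. Lung cancer cell lines in 1536-well plates were pin-tool dosed one day after seeding with one drug alone or with a fixed anchor-drug dose plus five library-drug doses (not always all listed) in √10 steps, then fixed, stained and imaged at 4× after 5 days.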

LXF-289 = system: LXF-289
How it was run: as §1

NCI-H1355 = system: NCI-H1355
How it was run: as §1

NCI-H1651 = system: NCI-H1651
How it was run: as §1

NCI-H1755 = system: NCI-H1755
How it was run: as §1

NCI-H1792 = system: NCI-H1792
How it was run: as §1

NCI-H1915 = system: NCI-H1915
How it was run: as §1

NCI-H2170 = system: NCI-H2170
How it was run: as §1

NCI-H2347 = system: NCI-H2347
How it was run: as §1

NCI-H3122 = system: NCI-H3122
How it was run: as §1

NCI-H322M = system: NCI-H322M
How it was run: as §1

NCI-H441 = system: NCI-H441
How it was run: as §1

NCI-H460 = system: NCI-H460
How it was run: as §1

NCI-H520 = system: NCI-H520
How it was run: as §1

NCI-H596 = system: NCI-H596
How it was run: as §1

NCI-H650 = system: NCI-H650
How it was run: as §1

NCI-H661 = system: NCI-H661
How it was run: as §1

NCI-H727 = system: NCI-H727
How it was run: as §1

PC-14 = system: PC-14
How it was run: as §1

RERF-LC-KJ = system: RERF-LC-KJ
How it was run: as §1

SK-MES-1 = system: SK-MES-1
How it was run: as §1

SW 900 = system: SW 900
How it was run: as §1

`CC1(C)CCC(c2ccc(Cl)cc2)=C(CN2CCN(c3ccc(C(=O)NS(=O)(=O)c4ccc(N[C@H](CCN5CCOCC5)CSc5ccccc5)c(S(=O)(=O)C(F)(F)F)c4)cc3)CC2)C1` [Navitoclax] + O=C(c1cc(Cc2n[nH]c(=O)c3ccccc23)ccc1F)N1CCN(C(=O)C2CC2)CC1 [Olaparib] (partner 8 µM) was tested, and the relative viability (LCLC-103H; first compound 0.005 µM) was 0.715, the relative viability (LCLC-103H; first compound 0.01581 µM) was 0.817 and the relative viability (LCLC-103H; first compound 0.05 µM) was 0.729. The relative viability (LCLC-103H; first compound 0.1581 µM) was 0.738, the relative viability (LCLC-103H; first compound 0.5 µM) was 0.705 and the relative viability (LXF-289; first compound 0.005 µM) was 1.01. For the same molecule, the relative viability (LXF-289; first compound 0.01581 µM) was 1.12, the relative viability (LXF-289; first compound 0.05 µM) was 0.88 and the relative viability (LXF-289; first compound 0.1581 µM) was 0.888. The relative viability (LXF-289; first compound 0.5 µM) was 1.08, the relative viability (NCI-H1355; first compound 0.005 µM) was 0.74 and the relative viability (NCI-H1355; first compound 0.01581 µM) was 0.731. The relative viability (NCI-H1355; first compound 0.05 µM) was 0.734, the relative viability (NCI-H1355; first compound 0.1581 µM) was 0.694 and the relative viability (NCI-H1355; first compound 0.5 µM) was 0.806. It also gave a relative viability (NCI-H1651; first compound 0.005 µM) of 0.167, a relative viability (NCI-H1651; first compound 0.01581 µM) of 0.181 and a relative viability (NCI-H1651; first compound 0.05 µM) of 0.152. It also gave a relative viability (NCI-H1651; first compound 0.1581 µM) of 0.189, a relative viability (NCI-H1651; first compound 0.5 µM) of 0.197 and a relative viability (NCI-H1755; first compound 0.005 µM) of 0.831. For the same molecule, the relative viability (NCI-H1755; first compound 0.01581 µM) was 0.929, the relative viability (NCI-H1755; first compound 0.05 µM) was 0.686 and the relative viability (NCI-H1755; first compound 0.1581 µM) was 0.818. It also gave a relative viability (NCI-H1755; first compound 0.5 µM) of 0.897, a relative viability (NCI-H1792; first compound 0.005 µM) of 0.408 and a relative viability (NCI-H1792; first compound 0.01581 µM) of 0.662. It also gave a relative viability (NCI-H1792; first compound 0.1581 µM) of 0.386, a relative viability (NCI-H1792; first compound 0.5 µM) of 0.326 and a relative viability (NCI-H1915; first compound 0.005 µM) of 0.253. The relative viability (NCI-H1915; first compound 0.01581 µM) was 0.247, the relative viability (NCI-H1915; first compound 0.05 µM) was 0.215 and the relative viability (NCI-H1915; first compound 0.1581 µM) was 0.261. It also gave a relative viability (NCI-H1915; first compound 0.5 µM) of 0.254, a relative viability (NCI-H2170; first compound 0.005 µM) of 0.574 and a relative viability (NCI-H2170; first compound 0.01581 µM) of 0.62. The relative viability (NCI-H2170; first compound 0.05 µM) was 0.53, the relative viability (NCI-H2170; first compound 0.1581 µM) was 0.58 and the relative viability (NCI-H2170; first compound 0.5 µM) was 0.56. For the same molecule, the relative viability (NCI-H2347; first compound 0.005 µM) was 0.558, the relative viability (NCI-H2347; first compound 0.01581 µM) was 0.585 and the relative viability (NCI-H2347; first compound 0.05 µM) was 0.537. It also gave a relative viability (NCI-H2347; first compound 0.1581 µM) of 0.61, a relative viability (NCI-H2347; first compound 0.5 µM) of 0.51 and a relative viability (NCI-H3122; first compound 0.005 µM) of 0.605. The relative viability (NCI-H3122; first compound 0.01581 µM) was 0.577, the relative viability (NCI-H3122; first compound 0.05 µM) was 0.576 and the relative viability (NCI-H3122; first compound 0.1581 µM) was 0.655. For the same molecule, the relative viability (NCI-H3122; first compound 0.5 µM) was 0.597, the relative viability (NCI-H322M; first compound 0.005 µM) was 0.8 and the relative viability (NCI-H322M; first compound 0.01581 µM) was 0.984. For the same molecule, the relative viability (NCI-H322M; first compound 0.05 µM) was 0.754, the relative viability (NCI-H322M; first compound 0.1581 µM) was 0.725 and the relative viability (NCI-H322M; first compound 0.5 µM) was 0.934. For the same molecule, the relative viability (NCI-H441; first compound 0.005 µM) was 0.529, the relative viability (NCI-H441; first compound 0.01581 µM) was 0.528 and the relative viability (NCI-H441; first compound 0.05 µM) was 0.627. The relative viability (NCI-H441; first compound 0.1581 µM) was 0.429, the relative viability (NCI-H441; first compound 0.5 µM) was 0.5 and the relative viability (NCI-H460; first compound 0.005 µM) was 0.424. For the same molecule, the relative viability (NCI-H460; first compound 0.01581 µM) was 0.499, the relative viability (NCI-H460; first compound 0.05 µM) was 0.359 and the relative viability (NCI-H460; first compound 0.1581 µM) was 0.388. For the same molecule, the relative viability (NCI-H460; first compound 0.5 µM) was 0.402, the relative viability (NCI-H520; first compound 0.005 µM) was 0.346 and the relative viability (NCI-H520; first compound 0.01581 µM) was 0.299. For the same molecule, the relative viability (NCI-H520; first compound 0.05 µM) was 0.336, the relative viability (NCI-H520; first compound 0.1581 µM) was 0.318 and the relative viability (NCI-H520; first compound 0.5 µM) was 0.33. For the same molecule, the relative viability (NCI-H596; first compound 0.005 µM) was 0.663, the relative viability (NCI-H596; first compound 0.01581 µM) was 0.758 and the relative viability (NCI-H596; first compound 0.05 µM) was 0.533. The relative viability (NCI-H596; first compound 0.1581 µM) was 0.598, the relative viability (NCI-H596; first compound 0.5 µM) was 0.626 and the relative viability (NCI-H650; first compound 0.005 µM) was 0.395. For the same molecule, the relative viability (NCI-H650; first compound 0.01581 µM) was 0.453, the relative viability (NCI-H650; first compound 0.05 µM) was 0.35 and the relative viability (NCI-H650; first compound 0.1581 µM) was 0.362. The relative viability (NCI-H650; first compound 0.5 µM) was 0.386, the relative viability (NCI-H661; first compound 0.005 µM) was 0.751 and the relative viability (NCI-H661; first compound 0.01581 µM) was 0.797. It also gave a relative viability (NCI-H661; first compound 0.05 µM) of 0.712, a relative viability (NCI-H661; first compound 0.1581 µM) of 0.695 and a relative viability (NCI-H661; first compound 0.5 µM) of 0.751. The relative viability (NCI-H727; first compound 0.005 µM) was 0.774, the relative viability (NCI-H727; first compound 0.01581 µM) was 0.769 and the relative viability (NCI-H727; first compound 0.05 µM) was 0.738. The relative viability (NCI-H727; first compound 0.1581 µM) was 0.559, the relative viability (NCI-H727; first compound 0.5 µM) was 0.721 and the relative viability (PC-14; first compound 0.005 µM) was 0.266. For the same molecule, the relative viability (PC-14; first compound 0.01581 µM) was 0.28, the relative viability (PC-14; first compound 0.05 µM) was 0.283 and the relative viability (PC-14; first compound 0.1581 µM) was 0.219. It also gave a relative viability (PC-14; first compound 0.5 µM) of 0.235, a relative viability (RERF-LC-KJ; first compound 0.005 µM) of 0.887 and a relative viability (RERF-LC-KJ; first compound 0.01581 µM) of 0.796. The relative viability (RERF-LC-KJ; first compound 0.05 µM) was 0.917, the relative viability (RERF-LC-KJ; first compound 0.1581 µM) was 0.861 and the relative viability (RERF-LC-KJ; first compound 0.5 µM) was 0.983. It also gave a relative viability (SK-MES-1; first compound 0.005 µM) of 0.648, a relative viability (SK-MES-1; first compound 0.01581 µM) of 0.677 and a relative viability (SK-MES-1; first compound 0.05 µM) of 0.775. It also gave a relative viability (SK-MES-1; first compound 0.1581 µM) of 0.636, a relative viability (SK-MES-1; first compound 0.5 µM) of 0.814 and a relative viability (SW 900; first compound 0.005 µM) of 0.936. It also gave a relative viability (SW 900; first compound 0.01581 µM) of 1.01, a relative viability (SW 900; first compound 0.1581 µM) of 0.947 and a relative viability (SW 900; first compound 0.5 µM) of 0.841.

— the supplement of paper PMC10307832
